From PubChem BioAssay AID2060888 (Molecular Pharmacology Branch, DTP, NCI, 2025)
Each block holds one compound with its values, some of them ahead of it.

Tested on: 695427-040-R-J1-PDC complex spheroid viability
Experiment: Anticancer human tumor 695427-040-R-J1-PDC patient-derived colon adenocarcinoma cell line growth inhibition [RAS]
Conditions: for IC50: curve of first compound; for viability, T/C: stronger effect = lower value
Outline: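 Tumour cells grown as complex spheroids with HUVEC endothelial cells and mesenchymal stem cells, treated with RAS pathway inhibitor combinations. Each agent spans half-log steps from near clinical Cmax, or 10 microM where Cmax is unknown.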
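Further: viability read after seven days of drug exposure.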
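Wherever viability, T/C is given: 100% = DMSO vehicle control viability.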

IC50 (second compound 0.0316 µM): > 100 nM
IC50 (second compound 0.1 µM): > 100 nM
IC50 (second compound 0.316 µM): > 100 nM
IC50 (second compound 1 µM): 22.5 nM
IC50 (second compound 3.16 µM): 2.77 nM
IC50 (second compound 10 µM): < 0.316 nM
SMILES: CC(C)n1nc(-c2ccc3oc(N)nc3c2)c2c(N)ncnc21 + C#Cc1c(F)ccc2cc(O)cc(-c3ncc4c(N5CC6CCC(C5)N6)nc(OCC56CCCN5CC(F)C6)nc4c3F)c12
viability, T/C (second compound 0.0316 µM, first compound 0.000316 µM): 105%
viability, T/C (second compound 0.0316 µM, first compound 0.001 µM): 95.1%
viability, T/C (second compound 0.0316 µM, first compound 0.00316 µM): 88.5%
viability, T/C (second compound 0.0316 µM, first compound 0.01 µM): 75.7%
viability, T/C (second compound 0.0316 µM, first compound 0.0316 µM): 70.3%
viability, T/C (second compound 0.0316 µM, first compound 0.1 µM): 62.6%
viability, T/C (second compound 0.1 µM, first compound 0.000316 µM): 93.9%
viability, T/C (second compound 0.1 µM, first compound 0.001 µM): 89.4%
viability, T/C (second compound 0.1 µM, first compound 0.00316 µM): 90%
viability, T/C (second compound 0.1 µM, first compound 0.01 µM): 74.9%
viability, T/C (second compound 0.1 µM, first compound 0.0316 µM): 74.7%
viability, T/C (second compound 0.1 µM, first compound 0.1 µM): 55.9%
viability, T/C (second compound 0.316 µM, first compound 0.000316 µM): 91.9%
viability, T/C (second compound 0.316 µM, first compound 0.001 µM): 80.9%
viability, T/C (second compound 0.316 µM, first compound 0.00316 µM): 78.6%
viability, T/C (second compound 0.316 µM, first compound 0.01 µM): 68.8%
viability, T/C (second compound 0.316 µM, first compound 0.0316 µM): 61.5%
viability, T/C (second compound 0.316 µM, first compound 0.1 µM): 50.5%
viability, T/C (second compound 1 µM, first compound 0.000316 µM): 69.5%
viability, T/C (second compound 1 µM, first compound 0.001 µM): 64.3%
viability, T/C (second compound 1 µM, first compound 0.00316 µM): 63%
viability, T/C (second compound 1 µM, first compound 0.01 µM): 52.4%
viability, T/C (second compound 1 µM, first compound 0.0316 µM): 47.8%
viability, T/C (second compound 1 µM, first compound 0.1 µM): 42.1%
viability, T/C (second compound 3.16 µM, first compound 0.000316 µM): 51.1%
viability, T/C (second compound 3.16 µM, first compound 0.001 µM): 58.7%
viability, T/C (second compound 3.16 µM, first compound 0.00316 µM): 47.4%
viability, T/C (second compound 3.16 µM, first compound 0.01 µM): 42.1%
viability, T/C (second compound 3.16 µM, first compound 0.0316 µM): 35.4%
viability, T/C (second compound 3.16 µM, first compound 0.1 µM): 26.7%
viability, T/C (second compound 10 µM, first compound 0.000316 µM): 41.5%
viability, T/C (second compound 10 µM, first compound 0.001 µM): 33.5%
viability, T/C (second compound 10 µM, first compound 0.00316 µM): 35%
viability, T/C (second compound 10 µM, first compound 0.01 µM): 27%
viability, T/C (second compound 10 µM, first compound 0.0316 µM): 25%
viability, T/C (second compound 10 µM, first compound 0.1 µM): 14.5%

IC50 (second compound 0.0316 µM): > 300 nM
IC50 (second compound 0.1 µM): > 300 nM
IC50 (second compound 0.316 µM): > 300 nM
IC50 (second compound 1 µM): > 300 nM
IC50 (second compound 3.16 µM): 3.19 nM
IC50 (second compound 10 µM): < 0.949 nM
SMILES: CC1(C)CCC(Nc2ncc(C(F)(F)F)c(-c3c[nH]c4c(P(C)(C)=O)c(C#N)ccc34)n2)CN1 (stereo unspecified) + C#Cc1c(F)ccc2cc(O)cc(-c3ncc4c(N5CC6CCC(C5)N6)nc(OCC56CCCN5CC(F)C6)nc4c3F)c12
viability, T/C (second compound 0.0316 µM, first compound 0.000949 µM): 104%
viability, T/C (second compound 0.0316 µM, first compound 0.003 µM): 91.6%
viability, T/C (second compound 0.0316 µM, first compound 0.00949 µM): 84.4%
viability, T/C (second compound 0.0316 µM, first compound 0.03 µM): 79%
viability, T/C (second compound 0.0316 µM, first compound 0.0949 µM): 84.5%
viability, T/C (second compound 0.0316 µM, first compound 0.3 µM): 80.3%
viability, T/C (second compound 0.1 µM, first compound 0.000949 µM): 101%
viability, T/C (second compound 0.1 µM, first compound 0.003 µM): 87.8%
viability, T/C (second compound 0.1 µM, first compound 0.00949 µM): 84.3%
viability, T/C (second compound 0.1 µM, first compound 0.03 µM): 88.6%
viability, T/C (second compound 0.1 µM, first compound 0.0949 µM): 79%
viability, T/C (second compound 0.1 µM, first compound 0.3 µM): 73.2%
viability, T/C (second compound 0.316 µM, first compound 0.000949 µM): 87.2%
viability, T/C (second compound 0.316 µM, first compound 0.003 µM): 89.7%
viability, T/C (second compound 0.316 µM, first compound 0.00949 µM): 99.2%
viability, T/C (second compound 0.316 µM, first compound 0.03 µM): 74%
viability, T/C (second compound 0.316 µM, first compound 0.0949 µM): 76.8%
viability, T/C (second compound 0.316 µM, first compound 0.3 µM): 70.4%
viability, T/C (second compound 1 µM, first compound 0.000949 µM): 67.7%
viability, T/C (second compound 1 µM, first compound 0.003 µM): 64.5%
viability, T/C (second compound 1 µM, first compound 0.00949 µM): 59.9%
viability, T/C (second compound 1 µM, first compound 0.03 µM): 62.5%
viability, T/C (second compound 1 µM, first compound 0.0949 µM): 67.7%
viability, T/C (second compound 1 µM, first compound 0.3 µM): 57.8%
viability, T/C (second compound 3.16 µM, first compound 0.000949 µM): 66.8%
viability, T/C (second compound 3.16 µM, first compound 0.003 µM): 49.2%
viability, T/C (second compound 3.16 µM, first compound 0.00949 µM): 51.9%
viability, T/C (second compound 3.16 µM, first compound 0.03 µM): 48.6%
viability, T/C (second compound 3.16 µM, first compound 0.0949 µM): 48%
viability, T/C (second compound 3.16 µM, first compound 0.3 µM): 43.5%
viability, T/C (second compound 10 µM, first compound 0.000949 µM): 37.4%
viability, T/C (second compound 10 µM, first compound 0.003 µM): 39.2%
viability, T/C (second compound 10 µM, first compound 0.00949 µM): 43.2%
viability, T/C (second compound 10 µM, first compound 0.03 µM): 35.3%
viability, T/C (second compound 10 µM, first compound 0.0949 µM): 39.3%
viability, T/C (second compound 10 µM, first compound 0.3 µM): 34.3%

IC50 (second compound 0.000949 µM): > 10000 nM
IC50 (second compound 0.003 µM): > 10000 nM
IC50 (second compound 0.00949 µM): > 10000 nM
IC50 (second compound 0.03 µM): > 10000 nM
IC50 (second compound 0.0949 µM): > 10000 nM
IC50 (second compound 0.3 µM): > 10000 nM
SMILES: CC(C)NCC(C(=O)N1CCN(c2ncnc3c2C(C)CC3O)CC1)c1ccc(Cl)cc1 (stereo unspecified) + CCn1c(-c2cccnc2C(C)OC)c2c3cc(ccc31)N1CCOC(CC(NC(=O)C(C(C)C)N(C)C(=O)C3(F)CCN(C(=O)C#CC(C)(C)N(C)C)CC3)C(=O)N3CCCC(N3)C(=O)OCC(C)(C)C2)C1
viability, T/C (second compound 0.000949 µM, first compound 0.0316 µM): 86%
viability, T/C (second compound 0.000949 µM, first compound 0.1 µM): 91.1%
viability, T/C (second compound 0.000949 µM, first compound 0.316 µM): 91.7%
viability, T/C (second compound 0.000949 µM, first compound 1 µM): 68.2%
viability, T/C (second compound 0.000949 µM, first compound 3.16 µM): 62.6%
viability, T/C (second compound 0.000949 µM, first compound 10 µM): 60.8%
viability, T/C (second compound 0.003 µM, first compound 0.0316 µM): 103%
viability, T/C (second compound 0.003 µM, first compound 0.1 µM): 91.4%
viability, T/C (second compound 0.003 µM, first compound 0.316 µM): 65.9%
viability, T/C (second compound 0.003 µM, first compound 1 µM): 84.7%
viability, T/C (second compound 0.003 µM, first compound 3.16 µM): 74.7%
viability, T/C (second compound 0.003 µM, first compound 10 µM): 54.6%
viability, T/C (second compound 0.00949 µM, first compound 0.0316 µM): 113%
viability, T/C (second compound 0.00949 µM, first compound 0.1 µM): 89.5%
viability, T/C (second compound 0.00949 µM, first compound 0.316 µM): 59.9%
viability, T/C (second compound 0.00949 µM, first compound 1 µM): 85.2%
viability, T/C (second compound 0.00949 µM, first compound 3.16 µM): 63.4%
viability, T/C (second compound 0.00949 µM, first compound 10 µM): 63.5%
viability, T/C (second compound 0.03 µM, first compound 0.0316 µM): 91.6%
viability, T/C (second compound 0.03 µM, first compound 0.1 µM): 75.3%
viability, T/C (second compound 0.03 µM, first compound 0.316 µM): 81.5%
viability, T/C (second compound 0.03 µM, first compound 1 µM): 83.8%
viability, T/C (second compound 0.03 µM, first compound 3.16 µM): 59.2%
viability, T/C (second compound 0.03 µM, first compound 10 µM): 56.9%
viability, T/C (second compound 0.0949 µM, first compound 0.0316 µM): 88.5%
viability, T/C (second compound 0.0949 µM, first compound 0.1 µM): 88.7%
viability, T/C (second compound 0.0949 µM, first compound 0.316 µM): 72.6%
viability, T/C (second compound 0.0949 µM, first compound 1 µM): 70.8%
viability, T/C (second compound 0.0949 µM, first compound 3.16 µM): 77.1%
viability, T/C (second compound 0.0949 µM, first compound 10 µM): 71.2%
viability, T/C (second compound 0.3 µM, first compound 0.0316 µM): 105%
viability, T/C (second compound 0.3 µM, first compound 0.1 µM): 72.8%
viability, T/C (second compound 0.3 µM, first compound 0.316 µM): 79.8%
viability, T/C (second compound 0.3 µM, first compound 1 µM): 74.2%
viability, T/C (second compound 0.3 µM, first compound 3.16 µM): 57%
viability, T/C (second compound 0.3 µM, first compound 10 µM): 56.2%
